Reference: patent publication US20090105278A1, “Selective inhibitors of human corticosteroid syntheses” (Universitat Des Saarlandes, priority 2004, published 2009)
Read-outs that look alike come from different tables or passages of the source.

Tests used:
human CYP17 = molecular target: T1, human CYP17 (Homo sapiens, UniProt P05093); test: Percent inhibition of CYP17 (membrane fraction of E. coli pJL17/OR); type: biochemical; conditions: read-out: % Inhibition human CYP17
T1 construct: made in house; host or cells: E. coli pJL17/OR (membrane fraction)
T1 sequence (P05093 1-508): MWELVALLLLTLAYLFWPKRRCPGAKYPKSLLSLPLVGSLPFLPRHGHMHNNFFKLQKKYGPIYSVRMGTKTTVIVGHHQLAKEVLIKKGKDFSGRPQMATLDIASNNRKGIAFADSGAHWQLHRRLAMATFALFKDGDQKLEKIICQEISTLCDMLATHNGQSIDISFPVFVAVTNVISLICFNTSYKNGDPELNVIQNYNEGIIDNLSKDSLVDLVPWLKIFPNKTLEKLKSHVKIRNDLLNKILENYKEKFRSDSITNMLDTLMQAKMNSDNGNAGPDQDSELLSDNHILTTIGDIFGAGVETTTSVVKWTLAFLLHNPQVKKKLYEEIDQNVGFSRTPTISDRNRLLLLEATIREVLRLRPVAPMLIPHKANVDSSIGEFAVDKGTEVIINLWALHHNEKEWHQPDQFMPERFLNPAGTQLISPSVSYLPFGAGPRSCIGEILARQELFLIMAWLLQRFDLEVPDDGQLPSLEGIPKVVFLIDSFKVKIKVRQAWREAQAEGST
Experimental: The recombinantly altered E. coli strain pJL17/OR, in which human CYP17 and rat NADPH-P450-reductase were coexpressed, was grown and stored according to the method of Ehmer et al. (Ehmer, P. B. et al., J. Steroid Biochem. Mol. Biol. 75: 57-63 (2000)). For isolating the membrane fraction, 5 ml of the bacterial cell suspension with an OD578 of 50 was washed with phosphate buffer (0.05 M; pH 7.4; 1 mM MgCl2; 0.1 mM EDTA and 0.1 mM DTT). The bacteria were removed by centrifugation and resuspended in 10 ml of ice cold TES buffer (0.1 M tris-acetate; pH 7.8; 0.5 mM EDTA; 0.5 M sucrose). Four milligrams of lysozyme in 10 ml of ice cold water was added to obtain a final concentration of 0.2 mg/ml. This was followed by incubation for 30 minutes under continued shaking on ice. The spheroblasts were obtained by a renewed centrifugation step at 12,000 g for 10 min and again resuspended in 3 ml of ice cold phosphate buffer (composition see above, additionally 0.5 mM PMSF).
After freezing and thawing, the cells were lysed on ice with an ultrasonic disintegrator. The whole cells and the cell debris were centrifuged off at 3000 g for 7 min. The supernatant was again centrifuged at 50,000 g for 20 min at 4° C. A membrane pellet sedimented and was resuspended in 2 ml of phosphate buffer (composition see above) with […] by means of an Ultra-Turrax mixer. […] Aliquots with an approximate protein concentration of 5 mg/ml were stored at −70° C. until use.
Control incubations were performed in parallel with 5 μl DMSO without urea. The reaction was started by adding 50 μl of a membrane suspension diluted 1 to 5 in phosphate buffer (0.8 to 1 mg of protein per ml). After thoroughly mixing the components, the mixture was incubated at 37° C. for 30 min.
The steroids were extracted with 1 ml of EtOAc. […] After the centrifugation, 800 μl of the organic phase was removed, placed into a new vessel and evaporated to dryness. The samples were dissolved in 50 μl of a water-methanol mixture (1:1) and analyzed by HPLC. The substrate conversion was calculated from the ratio of the areas of the product peaks (17α-hydroxyprogesterone and 16α-hydroxyprogesterone) to that of the substrate peak. The activity of the inhibitors was calculated from the reduced substrate conversion after the addition of inhibitors in accordance with the following formula: […]

bovine adrenal CYP11B = molecular target: T2, bovine adrenal CYP11B (Bos taurus, UniProt P15150); test: Percent inhibition of bovine CYP11B (adrenal mitochondria); conditions: corticosterone substrate 200 μM, inhibitor 1 μM; for % Inhibition bovine bCYP11B: bovine adrenal mitochondria, 1 mg/ml protein, oxalate; for inhibition at 1 µM: read-out: % Inhibition bovine bCYP11B, bovine adrenal mitochondria, 1 mg/ml protein
T2 sequence (P15150 25-503): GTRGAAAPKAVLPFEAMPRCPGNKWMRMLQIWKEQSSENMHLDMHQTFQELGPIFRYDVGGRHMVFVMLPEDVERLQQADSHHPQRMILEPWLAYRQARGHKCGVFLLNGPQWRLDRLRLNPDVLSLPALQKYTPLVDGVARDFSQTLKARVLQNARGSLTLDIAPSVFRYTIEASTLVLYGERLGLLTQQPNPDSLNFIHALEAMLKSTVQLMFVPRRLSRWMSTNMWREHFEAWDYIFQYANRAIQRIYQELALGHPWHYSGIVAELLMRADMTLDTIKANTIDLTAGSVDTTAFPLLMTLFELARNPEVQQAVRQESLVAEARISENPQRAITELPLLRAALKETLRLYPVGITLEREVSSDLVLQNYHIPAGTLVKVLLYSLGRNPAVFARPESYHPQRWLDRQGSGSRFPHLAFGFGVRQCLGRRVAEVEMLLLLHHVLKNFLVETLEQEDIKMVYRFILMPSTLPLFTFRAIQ
Experimental: Bovine adrenal glands obtained freshly after slaughtering were stored in ice cold Tris-sucrose buffer (0.25 M sucrose, 0.05 M Tris; pH 7.4) until processed. After removing the appending adipose tissue, the adrenal medulla was carefully separated from the adrenal cortex using scissors. The pieces of adrenal cortex were coarsely comminuted with scissors, washed with Tris-sucrose buffer, weighed and finely comminuted in the above buffer (2 ml per g of tissue) with a hand mixer. Thereafter, the tissue was homogenized with an Ultra-Turrax mixer. For separating coarse cell debris and the nuclei, the homogenizate was centrifuged twice for 15 min at 900 g and 4° C. The supernatant was subsequently centrifuged for 35 min at 11,000 g for recovering the mitochondrial fraction. For purifying the mitochondrial fraction, the precipitate was resuspended in Tri-sucrose buffer and again centrifuged at 11,000 g for 35 min. This washing step was performed two times in total. After the last centrifugation, the pellet was resuspended in Tris-sucrose buffer containing 0.001 M EDTA and frozen at −70° C.
The substrate corticosterone was dissolved in methanol and diluted with Tris buffer to a final concentration of 200 μM. The inhibitors were also dissolved in methanol and diluted with buffer to a final concentration of 1 μM. […] Corticosterone (200 μM) was incubated with inhibitor (1 μM) and mitochondrial enzyme (0.5 mg/0.5 ml) with the addition of a regenerating system consisting of NADP^+ (1 mM), glucose-6-phosphate (7 mM) and glucose-6-Phosphate dehydrogenase (1 IU/0.5 ml). Up to 5 inhibitors per test could be incubated in duplicate. […] After preincubation for 5 minutes (30° C.; water bath), the reaction was started by adding mitochondrial suspension. […] The blind values were admixed with 250 μl of HCl before the enzyme was pipetted in. The steroids were separated off by shaking with 1 ml of ethyl acetate (10 min). After centrifugation (15,000 g, 10 min), 900 μl of the organic phase was shaken with 250 μl 1 N NaOH (10 min), and 800 μl of supernatant was again washed with 250 μl of buffer. […] 18-OH-corticosterone (retention time: 10 min) and corticosterone (retention time: 21 min) were separated. The height of the 18-OH-corticosterone peak was used for evaluation. The percent inhibition of the 18-hydroxylation of corticosterone by the inhibitors was based on the mediums of the control incubation, taking the blind values into account.

human CYP11B2 = molecular target: T3, human CYP11B2 (Homo sapiens, UniProt P19099); test: Screening test in transgenic fission yeast (S. pombe PE1) expressing human CYP11B2; type: cell-based; design: expressed in transfected cells; conditions: S. pombe cells which express human CYP11B2; deoxycorticosterone substrate 100 nM; inhibitor 500 nM; read-out: % Inhibition human hCYP11B2
T3 sequence (P19099 25-503): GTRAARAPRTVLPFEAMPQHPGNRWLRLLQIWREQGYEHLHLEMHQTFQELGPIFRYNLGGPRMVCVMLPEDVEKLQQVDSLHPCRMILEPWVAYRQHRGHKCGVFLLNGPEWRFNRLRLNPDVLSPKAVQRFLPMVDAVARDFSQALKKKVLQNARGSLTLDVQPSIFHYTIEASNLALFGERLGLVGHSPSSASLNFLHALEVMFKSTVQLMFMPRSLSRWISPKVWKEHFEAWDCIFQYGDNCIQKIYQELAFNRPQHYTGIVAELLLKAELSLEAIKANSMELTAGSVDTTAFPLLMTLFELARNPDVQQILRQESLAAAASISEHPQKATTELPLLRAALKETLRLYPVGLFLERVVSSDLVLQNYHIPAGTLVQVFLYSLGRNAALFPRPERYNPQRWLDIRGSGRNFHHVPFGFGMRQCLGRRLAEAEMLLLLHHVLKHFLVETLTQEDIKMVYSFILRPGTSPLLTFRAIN
Experimental: 492.5 μl of this cell suspension was admixed with 5 μl of inhibitor solution (50 μM of the compound to be tested in ethanol or DMSO) and incubated at 32° C. for 15 min. Controls were admixed with 5 μl of ethanol. […] The test was quenched by extracting the sample with 500 μl of EtOAc. After centrifugation (10,000 g, 2 min), the EtOAc phase was removed and evaporated to dryness. […] The reaction of the substrate to form corticosterone was analyzed by HPTLC (see below).
The quantification of the spots for the substrate deoxycorticosterone and the products corticosterone (and, if detectable, 18-hydroxycorticosterone and aldosterone) was effected with the related evaluation program AIDA. […] The calculation of the conversion rate was effected according to equation 1.
The plate was developed twice with the mobile solvent chloroform:methanol:water (300:20:1). Unlabeled 11-deoxycorticosterone and corticosterone were applied as a reference for the CYP11B1 reaction. For the CYP11B2 reaction, 11-deoxycorticosterone, corticosterone, 18-hydroxycorticosterone and aldosterone were used as references. The detection of the unlabeled references was effected at 260 nm. Subsequently, imaging plates (BAS MS2340, for ^14C samples, Raytest, Straubenhardt, Germany) were exposed to the HPTLC plates for 48 h. The imaging plates were scanned with the phosphoimager system Fuji FLA 3000 (Raytest, Straubenhardt, Germany), and the steroids were quantified.

ACTH-stimulated rats = conditions: Hausler et al. 1989; cited from earlier work
CYP11B1 in NCI-H295R = molecular target: T4, CYP11B1 in NCI-H295R (Homo sapiens, UniProt P15538); test: cell-based; conditions: read-out: NCI-H295R CYP11B1 RSS % inhibition
T4 sequence (P15538 25-503): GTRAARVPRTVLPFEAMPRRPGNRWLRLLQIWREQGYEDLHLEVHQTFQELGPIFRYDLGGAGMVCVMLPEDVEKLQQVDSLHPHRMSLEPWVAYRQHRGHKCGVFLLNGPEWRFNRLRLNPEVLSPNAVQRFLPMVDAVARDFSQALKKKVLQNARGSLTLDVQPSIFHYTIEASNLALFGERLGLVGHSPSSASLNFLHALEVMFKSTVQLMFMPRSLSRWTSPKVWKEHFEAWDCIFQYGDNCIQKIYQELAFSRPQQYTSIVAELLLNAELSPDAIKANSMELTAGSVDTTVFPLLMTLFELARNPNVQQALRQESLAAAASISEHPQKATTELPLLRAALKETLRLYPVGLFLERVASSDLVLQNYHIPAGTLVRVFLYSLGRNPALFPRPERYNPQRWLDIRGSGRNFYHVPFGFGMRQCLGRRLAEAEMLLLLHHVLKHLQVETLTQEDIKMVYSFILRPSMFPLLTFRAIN
Experimental: For testing inhibitors, a preincubation for one hour was performed first, followed by starting the enzyme reactions by adding substrate (500 nM).
A) Seeding: The cell lines were grown and passaged until a confluent cell lawn had formed. By tryptic treatment, the cell material of at least two culture dishes was obtained, and the number of cells determined by means of a CASY TT cell counter (150 μl capillary). […] With the cell material of two confluently grown culture dishes, two 24-well plates could be coated. After 24 hours, the cells had grown on, and after another 24 hours' stimulation phase with a solution containing potassium ions (final concentration: 20 mM KCl), could be employed for the test.
Of this solution, 5 μl each was added to the samples.
Then, the 24-well plate was stored in a CO2 incubator at 37° C. and […]. The incubation time was 3 hours when deoxycorticosterone was used as the substrate, 24 Hours for corticosterone, and 48 hours for deoxycortisol.
Test stop: After elapse of the incubation times, the plates were briefly swung, and then the content of the wells was removed quantitatively if possible and inactivated by mixing with 1000 μl of dichloromethane in a 2 ml Eppendorf vessel. After 10 minutes of shaking, it was centrifuged for phase separation, and the […], organic phase was transferred into a 1.5 ml Eppendorf vessel. […]

[1] = E. coli which expresses human CYP17, 5 mg/ml protein, progesterone substrate 2.5 μM, inhibitor 2.5 μM

Row | Compound | inhibition at 2.5 µM (human CYP17; [1]) [%] | % Inhibition bovine bCYP11B (bovine adrenal CYP11B) [%] | inhibition at 1 µM (bovine adrenal CYP11B) [%] | melting point [°C] | inhibition at 0.5 µM (human CYP11B2) [%] | inhibition at 2.5 µM (human CYP17) [%] | Aldosterone and corticosterone levels (ACTH-stimulated rats) | inhibition at 2.5 µM (CYP11B1 in NCI-H295R) [%]
1 | N#Cc1ccc2c(c1)CCC/C2=C/c1cnc[nH]1.O=C(O)C(=O)O [Compound 44b, (5Z)-5-(1H-Imidazole-5-ylmethylene)-5,6,7,8-tetrahydronaphthalene-2-carbonitrile oxalate] | 4 | 97 | ~90 | 206 | 54 |  |  | 
2 | N#Cc1ccc2c(c1)CC/C2=C\c1cnc[nH]1.O=C(O)C(=O)O [Compound 45a, (1E)-1-(1H-Imidazole-5-ylmethylene)indane-5-carbonitrile oxalate] | 21 | 81 | ~90 | 217 | 49 |  |  | 
3 | N#Cc1ccc2c(c1)CC/C2=C/c1cnc[nH]1.O=C(O)C(=O)O [Compound 45b, (1Z)-1-(1H-Imidazole-5-ylmethylene)indane-5-carbonitrile oxalate] | 4 | 100 | ~90 | 207 | 65 |  |  | 
4 | Fc1ccc2c(c1)CC/C2=C\c1cnc[nH]1 [Compound 47a, 5-[(E)-(5-Fluoro-2,3-dihydro-1H-indene-1-ylidenemethyl]-1H-imidazolium chloride] | 16 |  | 67 |  | 59 |  |  | 
5 | N#Cc1ccc(C2CCCc3cncn32)cc1 (stereo not drawn) [Fadrozole, 4-(5,6,7,8-tetrahydroimidazo[1,5-a]pyridine-5-yl)benzonitrile, reference compound] |  |  |  |  |  | 7 | lowers the aldosterone and corticosterone levels | 92
